pIC50: −log10 of the molar value.
target: T1, Indoleamine 2,3-dioxygenase (Homo sapiens, UniProt P14902); test: SKOV-3 cellular Indoleamine 2,3-dioxygenase assay; details: SKOV-3 cells, 50 ng/ml Interferon gamma, 100 μM L-Tryptophan, 24 hours, N-Formylkynurenin fluorescence detection; read-out: cell based activity
T1 construct: endogenous in cells; host or cells: SKOV-3 (ATCC HTB-77), stimulated with interferon gamma
Protocol: SKOV-3 cellular Indoleamine 2,3-dioxygenase assay
SKOV-3 cells were obtained from the American Type Culture Collection (ATCC® HTB-77™) and maintained in McCoy's medium (Pan Biotech) supplemented with 10% fetal bovine serum and 1% Penicilin/Streptomycin. Cells were kept at 37° C. in a humidified incubator with 5% CO2. For assay preparation, cells were seeded at a density of 2*10^5/ml into black clear bottom 96 well plates in 100 μl medium/well supplemented with 50 ng/ml Interferon gamma (eBioscience, Thermo Fisher Scientific). After cells fully adhered to the plate, dilution series of compounds were added in medium containing additional L-Tryptophan to a final L-Tryptophan concentration of 100 μM. The cells were incubated for 24 hours. Detection of produced N-Formylkynurenin was performed by addition of 3-Methylpiperidine to a final concentration of 200 mM. The plates were sealed and heated to 65° C. for 20 minutes in a water bath. After cooling the fluorescence of each well was recorded with a Victor™X4 (PerkinElmer) plate reader at an emission wavelength of 535 nm and excitation at 405 nm (Tomek et al.; Anal Bioanal Chem (2013) 405:2515-2524., Tomek et al.; Biochim Biophys Acta. 2015 September; 1850(9):1772-80).

T1 sequence (P14902 whole entry): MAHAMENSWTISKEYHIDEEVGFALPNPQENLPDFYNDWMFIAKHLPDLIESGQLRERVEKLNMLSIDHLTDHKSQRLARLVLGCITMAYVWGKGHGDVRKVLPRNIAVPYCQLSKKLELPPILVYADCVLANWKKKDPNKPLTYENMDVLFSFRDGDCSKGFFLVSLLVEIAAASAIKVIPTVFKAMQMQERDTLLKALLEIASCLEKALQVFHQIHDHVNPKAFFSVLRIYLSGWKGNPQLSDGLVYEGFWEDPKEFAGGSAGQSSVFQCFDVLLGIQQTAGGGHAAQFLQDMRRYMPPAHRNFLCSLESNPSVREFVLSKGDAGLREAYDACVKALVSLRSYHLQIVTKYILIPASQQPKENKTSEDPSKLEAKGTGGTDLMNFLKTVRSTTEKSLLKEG

Q: With Nc1c(NCCSc2nonc2C(=NO)Nc2cccc(C(F)F)c2)c(=O)c1=O [102/1] as the molecule, how does the pIC50 read?
A: > 7.00

Q: Nc1c(NCCSc2nsnc2C(=NO)Nc2ccc(F)c(Cl)c2)c(=O)c1=O [102/2] was tested. Which pIC50 did it give?
A: 6.00 to 7.00

Q: CC(C)(O)C(O)C(=O)NCCSc1nonc1C(=NO)Nc1ccc(F)c(C(F)F)c1 (stereo not shown) [107/1] was tested. Which pIC50 did it give?
A: > 7.00

Q: NS(=O)(=O)CC(=O)NCCSc1nonc1C(=NO)Nc1cc(F)cc(C(F)F)c1 [107/2] was tested. Which pIC50 did it give?
A: > 7.00

Q: How did the pIC50 turn out when N#Cc1cc(N/C(=N\O)c2nonc2SCCNC(=O)CS(N)(=O)=O)ccc1F [107/3] was run?
A: > 7.00

Q: NS(=O)(=O)CC(=O)NCCSc1nonc1/C(=N/O)Nc1cccc(Br)c1 [107/4] was tested. Which pIC50 did it give?
A: > 7.00

Q: NS(=O)(=O)CC(=O)NCCSc1nonc1/C(=N/O)Nc1cccc(Cl)c1 [107/5] was tested. Which pIC50 did it give?
A: > 7.00

Q: With CC(C)(O)C(=O)NCCSc1nonc1C(=NO)Nc1ccc(F)c(C(F)F)c1 [107/6] as the molecule, how does the pIC50 read?
A: > 7.00

Q: O=C(NCCSc1nonc1C(=NO)Nc1ccc(F)c(C(F)F)c1)C1(O)CCC1 [107/7] was tested. Which pIC50 did it give?
A: > 7.00

Q: O=C(NCCSc1nonc1/C(=N/O)Nc1ccc(F)c(C(F)F)c1)C1CS(=O)(=O)C1 [107/8] was tested. Which pIC50 did it give?
A: > 7.00

Q: With Cc1cccc(NC(=NO)c2nonc2SCCNC(=O)CS(N)(=O)=O)c1 [107/10] as the molecule, how does the pIC50 read?
A: > 7.00

Q: NS(=O)(=O)CC(=O)NCCSc1nonc1C(=NO)Nc1cccc(CF)c1 [107/11] was tested. Which pIC50 did it give?
A: > 7.00

Q: With N#Cc1cccc(N/C(=N\O)c2nonc2SCCNC(=O)CS(N)(=O)=O)c1 [107/12] as the molecule, how does the pIC50 read?
A: > 7.00

Q: With N#Cc1cccc(NC(=NO)c2nonc2SCCNC(=O)CCS(N)(=O)=O)c1 [107/13] as the molecule, how does the pIC50 read?
A: > 7.00

Q: NS(=O)(=O)CC(=O)NCCSc1nonc1/C(=N/O)Nc1ccc(F)c(Br)c1 [107/14] was tested. Which pIC50 did it give?
A: > 7.00

Q: With NS(=O)(=O)CCC(=O)NCCSc1nonc1C(=NO)Nc1cccc(Cl)c1 [107/15] as the molecule, how does the pIC50 read?
A: > 7.00

Q: With CC(C)(O)CC(=O)NCCSc1nonc1/C(=N/O)Nc1ccc(F)c(C(F)F)c1 [107/16] as the molecule, how does the pIC50 read?
A: > 7.00

Q: N#CCC(=O)NCCSc1nonc1/C(=N/O)Nc1ccc(F)c(C(F)F)c1 [107/17] was tested. Which pIC50 did it give?
A: > 7.00

Q: O=C(CCCC[C@@H]1SC[C@@H]2NC(=O)N[C@@H]21)NCCSc1nonc1C(=NO)Nc1ccc(F)c(Cl)c1 [107/18] was tested. Which pIC50 did it give?
A: > 7.00

Q: With CC(C)(O)c1ccc(C(=O)NCCSc2nonc2C(=NO)Nc2ccc(F)c(C(F)(F)F)c2)cc1 [107/19] as the molecule, how does the pIC50 read?
A: > 7.00

Q: How did the pIC50 turn out when O=C(NCCSc1nonc1C(=NO)Nc1ccc(F)c(C(F)F)c1)c1ccc(C(O)(C(F)(F)F)C(F)(F)F)cc1 [107/20] was run?
A: 6.00 to 7.00

Q: With O=C(CC(O)(C(F)(F)F)C(F)(F)F)NCCSc1nonc1C(=NO)Nc1ccc(F)c(C(F)(F)F)c1 [107/21] as the molecule, how does the pIC50 read?
A: > 7.00

Q: With O=C(NCCSc1nonc1C(=NO)Nc1ccc(F)c(C(F)(F)F)c1)C1=NOC(C(O)(C(F)(F)F)C(F)(F)F)C1 (stereo not shown) [107/22] as the molecule, how does the pIC50 read?
A: > 7.00

Q: O=C(NCCSc1nonc1C(=NO)Nc1ccc(F)c(C(F)F)c1)c1ccc(C(F)(F)F)cc1 [107/23] was tested. Which pIC50 did it give?
A: > 7.00

Q: With CS(=O)(=O)c1ccc(C(=O)NCCSc2nonc2C(=NO)Nc2ccc(F)c(C(F)F)c2)cc1 [107/24] as the molecule, how does the pIC50 read?
A: > 7.00

Q: How did the pIC50 turn out when N#Cc1ccc(C(=O)NCCSc2nonc2C(=NO)Nc2ccc(F)c(C(F)F)c2)cc1 [107/25] was run?
A: > 7.00

Q: How did the pIC50 turn out when O=C(NCCSc1nonc1C(=NO)Nc1ccc(F)c(C(F)F)c1)c1ccc(-n2cnnc2)cc1 [107/26] was run?
A: 6.00 to 7.00

Q: O=C(NCCSc1nonc1C(=NO)Nc1ccc(F)c(C(F)F)c1)c1ccc(-n2cnnn2)cc1 [107/27] was tested. Which pIC50 did it give?
A: > 7.00

Q: How did the pIC50 turn out when N#CC1(c2ccc(C(=O)NCCSc3nonc3C(=NO)Nc3ccc(F)c(C(F)F)c3)cc2)CC1 [107/28] was run?
A: > 7.00

Q: How did the pIC50 turn out when O=C(NCCSc1nonc1C(=NO)Nc1ccc(F)c(C(F)F)c1)c1ccc(C2(O)COC2)cc1 [107/29] was run?
A: > 7.00

Q: How did the pIC50 turn out when O=C(NCCSc1nonc1C(=NO)Nc1ccc(F)c(C(F)F)c1)c1ccc(C(O)(C(F)(F)F)C(F)(F)F)nc1 [107/30] was run?
A: > 7.00

Q: How did the pIC50 turn out when NS(=O)(=O)CC(=O)NCCSc1nonc1/C(=N/O)Nc1ccc(F)c(C(F)(F)F)c1 [107/31] was run?
A: > 7.00

Q: CS(=O)(=O)CC(=O)NCCSc1nonc1/C(=N/O)Nc1ccc(F)c(C(F)F)c1 [107/32] was tested. Which pIC50 did it give?
A: > 7.00

Q: NS(=O)(=O)CC(=O)NCCSc1nonc1C(=NO)Nc1cc(F)c(F)c(C(F)F)c1 [107/33] was tested. Which pIC50 did it give?
A: > 7.00

Q: How did the pIC50 turn out when NS(=O)(=O)CC(=O)NCCSc1nonc1C(=NO)Nc1cncc(C(F)(F)F)c1 [107/34] was run?
A: < 6.00

Q: With NS(=O)(=O)CCC(=O)NCCSc1nonc1C(=NO)Nc1ccc(F)c(C(F)(F)F)c1 [107/35] as the molecule, how does the pIC50 read?
A: > 7.00

Q: With NS(=O)(=O)CCC(=O)NCCSc1nonc1C(=NO)Nc1ccc(F)c(C(F)F)c1 [107/36] as the molecule, how does the pIC50 read?
A: > 7.00

Q: How did the pIC50 turn out when NC(=O)CCC(=O)NCCSc1nonc1C(=NO)Nc1ccc(F)c(C(F)F)c1 [107/37] was run?
A: > 7.00

Q: With CS(=O)(=O)CCC(=O)NCCSc1nonc1C(=NO)Nc1ccc(F)c(C(F)F)c1 [107/38] as the molecule, how does the pIC50 read?
A: > 7.00

Q: How did the pIC50 turn out when CS(=O)(=O)CCC(=O)NCCSc1nonc1C(=NO)Nc1cccc(Cl)c1 [107/39] was run?
A: > 7.00

Q: How did the pIC50 turn out when CS(=O)(=O)CCC(=O)NCCSc1nonc1C(=NO)Nc1cccc(Br)c1 [107/40] was run?
A: > 7.00

Q: How did the pIC50 turn out when CS(=O)(=O)CCC(=O)NCCSc1nonc1/C(=N/O)Nc1ccc(F)c(Br)c1 [107/41] was run?
A: > 7.00

Q: How did the pIC50 turn out when O=C(O)C1CN(CCSc2nonc2C(=NO)Nc2ccc(F)c(C(F)F)c2)C1 [108/1] was run?
A: < 6.00

Q: With O=C(O)CC1CN(CCSc2nonc2C(=NO)Nc2ccc(F)c(C(F)F)c2)C1 [108/2] as the molecule, how does the pIC50 read?
A: 6.00 to 7.00

Q: With NS(=O)(=O)NCC[S+]([O-])c1nonc1C(=NO)Nc1ccc(F)c(Cl)c1 (stereo not shown) [109/1] as the molecule, how does the pIC50 read?
A: < 6.00

Q: With [O-][S+](c1nonc1C(=NO)Nc1ccc(F)c(Br)c1)C1CC1 (stereo not shown) [109/2] as the molecule, how does the pIC50 read?
A: 6.00 to 7.00

Q: [O-][S+](CC(F)(F)F)c1nonc1C(=NO)Nc1ccc(F)c(Br)c1 (stereo not shown) [109/3] was tested. Which pIC50 did it give?
A: < 6.00

Q: With O=C(NCCSc1nonc1C(=NO)Nc1ccc(F)c(Cl)c1)c1n[nH]c(=O)[nH]1 [117/1] as the molecule, how does the pIC50 read?
A: 6.00 to 7.00

Q: How did the pIC50 turn out when O=C(NCCSc1nonc1C(=NO)Nc1ccc(F)c(Cl)c1)c1ccnc2nn[nH]c12 [117/2] was run?
A: < 6.00

Q: With Cn1nc(C(=O)NCCSc2nonc2C(=NO)Nc2ccc(F)c(Cl)c2)[nH]c1=O [117/3] as the molecule, how does the pIC50 read?
A: > 7.00

Q: How did the pIC50 turn out when O=C(NCCSc1nonc1C(=NO)Nc1ccc(F)c(Cl)c1)c1ccc(C(O)(C(F)(F)F)C(F)(F)F)cc1 [117/4] was run?
A: 6.00 to 7.00

Q: O=C(NCCSc1nonc1C(=NO)Nc1ccc(F)c(Cl)c1)c1ccc(C(=O)O)nc1 [117/5] was tested. Which pIC50 did it give?
A: < 6.00

Q: How did the pIC50 turn out when O=C(NCCSc1nonc1C(=NO)Nc1ccc(F)c(Cl)c1)c1nnc(C(F)(F)F)[nH]1 [117/6] was run?
A: 6.00 to 7.00

Q: Cc1nnc(C(=O)NCCSc2nonc2C(=NO)Nc2ccc(F)c(Cl)c2)o1 [117/7] was tested. Which pIC50 did it give?
A: > 7.00

Q: With NS(=O)(=O)c1ccc(C(=O)NCCSc2nonc2C(=NO)Nc2ccc(F)c(Cl)c2)cc1 [117/8] as the molecule, how does the pIC50 read?
A: > 7.00

Q: With NC(=O)c1ccc(C(=O)NCCSc2nonc2C(=NO)Nc2ccc(F)c(Cl)c2)cc1 [117/9] as the molecule, how does the pIC50 read?
A: > 7.00

Q: How did the pIC50 turn out when CS(=O)(=O)Nc1ccc(C(=O)NCCSc2nonc2C(=NO)Nc2ccc(F)c(C(F)F)c2)cc1 [117/10] was run?
A: > 7.00

Q: O=C(NCCSc1nonc1C(=NO)Nc1ccc(F)c(Cl)c1)c1ccc(NS(=O)(=O)C(F)(F)F)nc1 [117/11] was tested. Which pIC50 did it give?
A: < 6.00

Q: With NS(=O)(=O)CC(=O)NCCSc1nonc1/C(=N/O)Nc1ccc(F)c(C(F)F)c1 [117/12] as the molecule, how does the pIC50 read?
A: > 7.00

Q: With NS(=O)(=O)CC(=O)NCCSc1nonc1/C(=N/O)Nc1cccc(C(F)(F)F)c1 [117/13] as the molecule, how does the pIC50 read?
A: > 7.00

Q: NS(=O)(=O)c1ccc(C(=O)NCCSc2nonc2C(=NO)Nc2ccc(F)c(C(F)F)c2)cc1 [117/14] was tested. Which pIC50 did it give?
A: > 7.00
